The values that follow come from US20110092521A1, “Methods of Treating Diseases Using Inhibitors of Nucleoside Phosphorylases and Nucleosidases” (priority 2006, published 2011).

In data set [1] the test system is TRAMP (transgenic adenocarcinoma of mouse prostate) mice. The data set can be described thus: Treatment of TRAMP mice (tumour mass, histology, MRI). The format is in vivo. The conditions noted are these: for prostate cancer progression in the TRAMP mouse model: administered either alone or in combination with MTA. The procedure: MRI experiments were performed using a 9.4 T 21 cm bore horizontal bore magnet (Magnex Scientific) Varian INOVA MRI system (Fremont, Calif.) equipped with a 28 mm inner diameter quadrature birdcage coil. Mice were anesthetized with isoflurane inhalation anesthesia (1-1.5% in 100% O2 administered via a nose cone) and positioned in the MRI coil. Body temperature was maintained (37-38° C.) using a homeothermic warming system. After acquiring scout images, multi-slice spin-echo imaging with an echo time of 18 ms and a repetition time of 400 ms ms was performed. A 40 mm field of view with a 256×256 matrix size was used. Nine to 15 slices along the transverse, sagittal, and coronal planes were acquired in each multi-slice experiment with a slice thickness of 1 mm and the gap between slices of 0.5 mm. MRI data were processed off-line with MATLAB-based MRI analysis software.
Long-Term: Sterile solutions of 100 μM compound (2) (pH ˜6.4). Water bottles were autoclaved prior to filling with sterile inhibitor solutions. Water consumption was monitored every other day, with fresh inhibitor solution being administered to prevent bacterial growth. Mice were control-sacrificed and tissues (genitourinary system, liver, lungs) were collected for histology and polyamine analysis. Mass and dimensions of excised genitourinary system tumours were recorded. Sections of small intestine were also removed for toxicity analysis via H&E staining.

The next data set relates to FaDu xenografts. Description: FaDu xenograft studies in NOD-SCID mice. The format is in vivo, mouse. As for the experimental part:
NOD-SCID mice (6-8 weeks old) were obtained from Jackson Laboratory (Bar Harbor, Me.). FaDu cells (10^6) were inoculated into the dorsum of the hind foot. After 5 days, mice were treated with 9 mg/kg or 21 mg/kg body weight of compound (2) in drinking water or by daily i.p. injections of 5 mg/kg body weight of compound (2). After inoculation mice were assigned to treatment or control groups (n=5). Tumor volume (V) was determined from: V=(4/3)*(22/7)*1/8*(length*width*height). Differences between treatment cohorts were determined using the Student's t test Mice were weighed every 4-5 days, monitored for hair loss, loss of appetite, vomiting and diarrhoea. Total and differential blood and bone marrow analyses were performed after treatment with compound (2).

SMILES strings stand for the structures. “Also recorded” adds a separate entry of the source.

Consider `CSC[C@H]1N[C@@H](c2c[nH]c3c(N)ncnc23)C(O)C1O` (stereo partly drawn) [compound (3)], for which the “prostate cancer progression in the TRAMP mouse model” value in data set [1] is reported as “inhibits prostate cancer progression”.
`CSC[C@H]1CN(Cc2c[nH]c3c(N)ncnc23)C[C@@H]1O` [compound (2), (3R,4S)-1-[(9-deazaadenin-9-yl)methyl]-3-hydroxy-4-(methylthiomethyl)pyrrolidine]: the “regrowth of tumor after removal of treatment” value in the data set with FaDu xenografts (28 days without treatment after 28 day therapy, mice receiving the two highest doses) is recorded as “no regrowth of tumor”. In addition, the “differences in animal weight or in total and differential blood counts between treatment and control groups” value in the data set on FaDu xenografts (NOD-SCID mice with FaDu tumors, after 28 days of therapy) is “No significant differences”. In the data set with FaDu xenografts (NOD-SCID mice, 9 or 21 mg/kg in drinking water or 5 mg/kg daily i.p., from day 5, versus controls), the “growth of established FaDu xenografts (tumor growth)” value is “significantly slower than in controls; also recorded: significantly delays the growth”. Further, the “tumour growth and metastasis in TRAMP mice” value in data set [1] (100 μM via drinking water, approximately 6-8 months) is “reduces tumour growth and metastasis”. Further, the “prostate cancer progression in the TRAMP mouse model” value in data set [1] is listed as “inhibited”.
